Assays:
Format in all cases: biochemical
Jak2 (a.a. 828-1132) = Jak2 (a.a. 828-1132) (Homo sapiens (Human), UniProt O60674); test: In vitro JAK kinase assay (HTRF, phosphorylation of a biotinylated peptide), JAK2; settings: measured at 1 mM ATP
Summary of the method: (§1)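 N-terminally His-tagged catalytic domains, baculovirus-expressed in insect cells and purified, were used as enzyme. Reactions ran 1 hr at room temperature and were stopped with a mix of 45 mM EDTA, 300 nM SA-APC and 6 nM Eu-Py20. The HTRF signal was read after 40 min of antibody binding.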

[1] = biological target: human JAK1 (a.a. 837-1142) (Homo sapiens, UniProt P23458); test: In vitro JAK kinase assay (HTRF, phosphorylation of a biotinylated peptide), JAK1; settings: measured at 1 mM ATP
Summary of the method: as §1

[2] = biological target: human JAK1 (a.a. 837-1142); test: as above; settings: ratio of JAK2 IC50 to JAK1 IC50, measured at 1 mM ATP
Summary of the method: as §1

Chain of Jak2 (a.a. 828-1132) (O60674 828-1132): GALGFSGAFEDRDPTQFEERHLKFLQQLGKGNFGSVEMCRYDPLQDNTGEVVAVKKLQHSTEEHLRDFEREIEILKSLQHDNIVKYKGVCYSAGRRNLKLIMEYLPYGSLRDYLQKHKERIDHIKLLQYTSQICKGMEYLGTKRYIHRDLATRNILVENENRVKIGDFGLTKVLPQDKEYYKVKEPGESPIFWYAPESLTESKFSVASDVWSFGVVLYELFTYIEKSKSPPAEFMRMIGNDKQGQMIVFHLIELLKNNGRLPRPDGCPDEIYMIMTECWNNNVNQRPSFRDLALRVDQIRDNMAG

N#CCC1(n2ccc(-c3ncnc4[nH]ccc34)c2)CN(C2CCN(C(=O)c3cccc(OC(F)(F)F)c3F)CC2)C1 [Example 281, {1-{1-[2-fluoro-3-(trifluoromethoxy)benzoyl]piperidin-4-yl}-3-[3-(7H-pyrrolo[2,3-d]pyrimidin-4-yl)-1H-pyrrol-1-yl]azetidin-3-yl}acetonitrile]
IC50 (Jak2 (a.a. 828-1132)): 10 to 50 nM
IC50 [1]: ≤ 5 nM
IC50 Ratio JAK2/JAK1 [2]: 10.0

N#CCC1(n2ccc(-c3ncnc4[nH]ccc34)c2)CN(C2CCN(C(=O)c3ccc(O)c(C(F)(F)F)c3)CC2)C1 [Example 282, {1-{1-[4-hydroxy-3-(trifluoromethyl)benzoyl]piperidin-4-yl}-3-[3-(7H-pyrrolo[2,3-d]pyrimidin-4-yl)-1H-pyrrol-1-yl]azetidin-3-yl}acetonitrile]
IC50 (Jak2 (a.a. 828-1132)): 10 to 50 nM
IC50 [1]: 5 to 20 nM
IC50 Ratio JAK2/JAK1 [2]: 3.4

N#CCC1(n2ccc(-c3ncnc4[nH]ccc34)c2)CN(C2CCN(C(=O)Nc3ccc(F)cc3C(F)(F)F)CC2)C1 [Example 283, 4-{3-(Cyanomethyl)-3-[3-(7H-pyrrolo[2,3-d]pyrimidin-4-yl)-1H-pyrrol-1-yl]azetidin-1-yl}-N-[4-fluoro-2-(trifluoromethyl)phenyl]piperidine-1-carboxamide]
IC50 (Jak2 (a.a. 828-1132)): 50 to 100 nM
IC50 [1]: ≤ 5 nM
IC50 Ratio JAK2/JAK1 [2]: 35.6

COc1ncccc1NC(=O)N1CCC(N2CC(CC#N)(n3ccc(-c4ncnc5[nH]ccc45)c3)C2)CC1 [Example 284, 4-{3-(cyanomethyl)-3-[3-(7H-pyrrolo[2,3-d]pyrimidin-4-yl)-1H-pyrrol-1-yl]azetidin-1-yl}-N-(2-methoxypyridin-3-yl)piperidine-1-carboxamide]
IC50 (Jak2 (a.a. 828-1132)): 10 to 50 nM
IC50 [1]: ≤ 5 nM
IC50 Ratio JAK2/JAK1 [2]: 5.8

Cc1nc(C(F)(F)F)ccc1NC(=O)N1CCC(N2CC(CC#N)(n3ccc(-c4ncnc5[nH]ccc45)c3)C2)CC1 [Example 285, 4-{3-(cyanomethyl)-3-[3-(7H-pyrrolo[2,3-d]pyrimidin-4-yl)-1H-pyrrol-1-yl]azetidin-1-yl}-N-[2-methyl-6-(trifluoromethyl)pyridin-3-yl]piperidine-1-carboxamide]
IC50 (Jak2 (a.a. 828-1132)): 10 to 50 nM
IC50 [1]: 5 to 20 nM
IC50 Ratio JAK2/JAK1 [2]: 5.7

N#CCC1(n2ccc(-c3ncnc4[nH]ccc34)c2)CN(C2CCN(C(=O)Nc3ccc(F)cc3F)CC2)C1 [Example 286, 4-{3-(cyanomethyl)-3-[3-(7H-pyrrolo[2,3-d]pyrimidin-4-yl)-1H-pyrrol-1-yl]azetidin-1-yl}-N-(2,4-difluorophenyl)piperidine-1-carboxamide]
IC50 (Jak2 (a.a. 828-1132)): 10 to 50 nM
IC50 [1]: ≤ 5 nM
IC50 Ratio JAK2/JAK1 [2]: 13.1

N#CCC1(n2ccc(-c3ncnc4[nH]ccc34)c2)CN(C2CCN(C(=O)Nc3ccccc3C#N)CC2)C1 [Example 287, 4-{3-(cyanomethyl)-3-[3-(7H-pyrrolo[2,3-d]pyrimidin-4-yl)-1H-pyrrol-1-yl]azetidin-1-yl}-N-(2-cyanophenyl)piperidine-1-carboxamide]
IC50 (Jak2 (a.a. 828-1132)): 50 to 100 nM
IC50 [1]: 5 to 20 nM
IC50 Ratio JAK2/JAK1 [2]: 6.7

COc1ccccc1NC(=O)N1CCC(N2CC(CC#N)(n3ccc(-c4ncnc5[nH]ccc45)c3)C2)CC1 [Example 288, 4-{3-(cyanomethyl)-3-[3-(7H-pyrrolo[2,3-d]pyrimidin-4-yl)-1H-pyrrol-1-yl]azetidin-1-yl}-N-(2-methoxyphenyl)piperidine-1-carboxamide]
IC50 (Jak2 (a.a. 828-1132)): ≤ 10 nM
IC50 [1]: ≤ 5 nM
IC50 Ratio JAK2/JAK1 [2]: 9.0

N#CCC1(n2ccc(-c3ncnc4[nH]ccc34)c2)CN(C2CCN(C(=O)Nc3ncccc3C(F)(F)F)CC2)C1 [Example 290, 4-{3-(cyanomethyl)-3-[3-(7H-pyrrolo[2,3-d]pyrimidin-4-yl)-1H-pyrrol-1-yl]azetidin-1-yl}-N-[3-(trifluoromethyl)pyridin-2-yl]piperidine-1-carboxamide]
IC50 (Jak2 (a.a. 828-1132)): > 100 nM
IC50 [1]: 20 to 30 nM
IC50 Ratio JAK2/JAK1 [2]: 3.9

N#CCC1(n2ccc(-c3ncnc4[nH]ccc34)c2)CN(C2CCN(C(=O)Nc3cnccc3C(F)(F)F)CC2)C1 [Example 291, 4-{3-(cyanomethyl)-3-[3-(7H-pyrrolo[2,3-d]pyrimidin-4-yl)-1H-pyrrol-1-yl]azetidin-1-yl}-N-[4-(trifluoromethyl)pyridin-3-yl]piperidine-1-carboxamide]
IC50 (Jak2 (a.a. 828-1132)): 50 to 100 nM
IC50 [1]: ≤ 5 nM
IC50 Ratio JAK2/JAK1 [2]: 20.3

N#CCC1(n2ccc(-c3ncnc4[nH]ccc34)c2)CN(C2CCN(C(=O)Nc3ncccc3F)CC2)C1 [Example 292, 4-{3-(cyanomethyl)-3-[3-(7H-pyrrolo[2,3-d]pyrimidin-4-yl)-1H-pyrrol-1-yl]azetidin-1-yl}-N-(3-fluoropyridin-2-yl)piperidine-1-carboxamide]
IC50 (Jak2 (a.a. 828-1132)): 10 to 50 nM
IC50 [1]: ≤ 5 nM
IC50 Ratio JAK2/JAK1 [2]: 9.1

N#CCC1(n2ccc(-c3ncnc4[nH]ccc34)c2)CN(C2CCN(C(=O)Nc3ccc(Cl)cc3C#N)CC2)C1 [Example 293, 4-{3-(cyanomethyl)-3-[3-(7H-pyrrolo[2,3-d]pyrimidin-4-yl)-1H-pyrrol-1-yl]azetidin-1-yl}-N-(4-chloro-2-cyanophenyl)piperidine-1-carboxamide]
IC50 (Jak2 (a.a. 828-1132)): 10 to 50 nM
IC50 [1]: ≤ 5 nM
IC50 Ratio JAK2/JAK1 [2]: 3.4

N#CCC1(n2cc(-c3ccnc4[nH]ccc34)cn2)CN(C2CCN(C(=O)c3ccc(C#N)cc3F)CC2)C1 [Example 295, 4-[(4-{3-(cyanomethyl)-3-[4-(1H-pyrrolo[2,3-b]pyridin-4-yl)-1H-pyrazol-1-yl]azetidin-1-yl}piperidin-1-yl)carbonyl]-3-fluorobenzonitrile]
IC50 (Jak2 (a.a. 828-1132)): 10 to 50 nM
IC50 [1]: 5 to 20 nM
IC50 Ratio JAK2/JAK1 [2]: 5.1

N#CCC1(n2cc(-c3ccnc4[nH]ccc34)cn2)CN(C2CCN(C(=O)c3ccc(O)c(F)c3)CC2)C1 [Example 296, {1-[1-(3-fluoro-4-hydroxybenzoyl)piperidin-4-yl]-3-[4-(1H-pyrrolo[2,3-b]pyridin-4-yl)-1H-pyrazol-1-yl]azetidin-3-yl}acetonitrile]
IC50 (Jak2 (a.a. 828-1132)): 10 to 50 nM
IC50 [1]: ≤ 5 nM
IC50 Ratio JAK2/JAK1 [2]: 4.6

N#CCC1(n2cc(-c3ccnc4[nH]ccc34)cn2)CN(C2CCN(C(=O)c3ccc(O)cc3F)CC2)C1 [Example 297, {1-[1-(2-fluoro-4-hydroxybenzoyl)piperidin-4-yl]-3-[4-(1H-pyrrolo[2,3-b]pyridin-4-yl)-1H-pyrazol-1-yl]azetidin-3-yl}acetonitrile]
IC50 (Jak2 (a.a. 828-1132)): ≤ 10 nM
IC50 [1]: ≤ 5 nM
IC50 Ratio JAK2/JAK1 [2]: 10.0

N#CCC1(n2cc(-c3ccnc4[nH]ccc34)cn2)CN(C2CCN(C(=O)c3cc(C(F)(F)F)ncc3Cl)CC2)C1 [Example 298, {1-{1-[5-chloro-2-(trifluoromethyl)isonicotinoyl]piperidin-4-yl}-3-[4-(1H-pyrrolo[2,3-b]pyridin-4-yl)-1H-pyrazol-1-yl]azetidin-3-yl}acetonitrile]
IC50 (Jak2 (a.a. 828-1132)): 50 to 100 nM
IC50 [1]: 20 to 30 nM
IC50 Ratio JAK2/JAK1 [2]: 2.8

N#CCC1(n2cc(-c3ccnc4[nH]ccc34)cn2)CN(C2CCN(C(=O)c3ccnc(C(F)(F)F)n3)CC2)C1 [Example 299, [3-[4-(1H-pyrrolo[2,3-b]pyridin-4-yl)-1H-pyrazol-1-yl]-1-(1-{[2-(trifluoromethyl)pyrimidin-4-yl]carbonyl}piperidin-4-yl)azetidin-3-yl]acetonitrile]
IC50 (Jak2 (a.a. 828-1132)): > 100 nM
IC50 [1]: 20 to 30 nM
IC50 Ratio JAK2/JAK1 [2]: 6.6

N#CCC1(n2cc(-c3ccnc4[nH]ccc34)cn2)CN(C2CCN(C(=O)c3cncc(C(F)(F)F)n3)CC2)C1 [Example 300, [3-[4-(1H-pyrrolo[2,3-b]pyridin-4-yl)-1H-pyrazol-1-yl]-1-(1-{[6-(trifluoromethyl)pyrazin-2-yl]carbonyl}piperidin-4-yl)azetidin-3-yl]acetonitrile]
IC50 (Jak2 (a.a. 828-1132)): > 100 nM
IC50 [1]: 5 to 20 nM
IC50 Ratio JAK2/JAK1 [2]: 11.7

N#CCC1(n2cc(-c3ccnc4[nH]ccc34)cn2)CN(C2CCN(C(=O)c3cnc(C(F)(F)F)cn3)CC2)C1 [Example 301, [3-[4-(1H-pyrrolo[2,3-b]pyridin-4-yl)-1H-pyrazol-1-yl]-1-(1-{[5-(trifluoromethyl)pyrazin-2-yl]carbonyl}piperidin-4-yl)azetidin-3-yl]acetonitrile]
IC50 (Jak2 (a.a. 828-1132)): 50 to 100 nM
IC50 [1]: 20 to 30 nM
IC50 Ratio JAK2/JAK1 [2]: 3.3

N#CCC1(n2cc(-c3ccnc4[nH]ccc34)cn2)CN(C2CCN(C(=O)C3CCC(F)(F)CC3)CC2)C1 [Example 302, {1-{1-[(4,4-fluorocyclohexyl)carbonyl]piperidin-4-yl}-3-[4-(1H-pyrrolo[2,3-b]pyridin-4-yl)-1H-pyrazol-1-yl]azetidin-3-yl}acetonitrile]
IC50 (Jak2 (a.a. 828-1132)): > 100 nM
IC50 [1]: 20 to 30 nM
IC50 Ratio JAK2/JAK1 [2]: 6.5

N#CCC1(n2cc(-c3ccnc4[nH]ccc34)cn2)CN(C2CCN(C(=O)Nc3ccc(F)cc3C(F)(F)F)CC2)C1 [Example 303, 4-{3-(Cyanomethyl)-3-[4-(1H-pyrrolo[2,3-b]pyridin-4-yl)-1H-pyrazol-1-yl]azetidin-1-yl}-N-[4-fluoro-2-(trifluoromethyl)phenyl]piperidine-1-carboxamide]
IC50 (Jak2 (a.a. 828-1132)): 50 to 100 nM
IC50 [1]: ≤ 5 nM
IC50 Ratio JAK2/JAK1 [2]: 19.7

N#CCC1(n2cc(-c3ccnc4[nH]ccc34)cn2)CN(C2CCN(C(=O)Nc3ccc(F)cc3F)CC2)C1 [Example 304, 4-{3-(cyanomethyl)-3-{4-(1H-pyrrolo[2,3-b]pyridin-4-yl)-1H-pyrazol-1-yl]azetidin-1-yl}-N-(2,4-difluorophenyl)piperidine-1-carboxamide]
IC50 (Jak2 (a.a. 828-1132)): 10 to 50 nM
IC50 [1]: ≤ 5 nM
IC50 Ratio JAK2/JAK1 [2]: 10.3

N#CCC1(n2cc(-c3ccnc4[nH]ccc34)cn2)CN(C2CCN(C(=O)Nc3ccc(F)cc3Cl)CC2)C1 [Example 305, N-(2-chloro-4-fluorophenyl)-4-{3-(cyanomethyl)-3-[4-(1H-pyrrolo[2,3-b]pyridin-4-yl)-1H-pyrazol-1-yl]azetidin-1-yl}piperidine-1-carboxamide]
IC50 (Jak2 (a.a. 828-1132)): 50 to 100 nM
IC50 [1]: ≤ 5 nM
IC50 Ratio JAK2/JAK1 [2]: 16.0
